Read-outs that look alike come from different tables or passages of the source.

What all share (format): cell-based
For experiment [1], the system named is Primary human pulmonary microvascular endothelial cells (HPMEC). Kind of experiment: Pulmonary endothelial cell cytokine release (TNFα triggered, cytokine array). Conditions: for inhibition at 50 µM: Homo sapiens, Endothelial cell, 50 μM B2, activated by TNF. As for the experimental part:
Endothelial cell cytokine release: Primary human pulmonary microvascular endothelial cells (HPMEC) were purchased from Promocell and maintained in endothelial cell media from Promocell as per the company's protocol. To measure the release of inflammatory mediators HPMEC were cultured to confluence in a 12 well plate in 1 ml of endothelial cell media. Cells were then stimulated with TNFα at 100 ng/ml overnight in the presence or absence of B2 or control DMSO. The supernatant was then collected and inflammatory mediator levels were measured in it using the Cytokine XXL array from R&D systems according to manufacturer's instructions as described above.
Human primary pulmonary endothelial cells were triggered to produce cytokines by the pro-inflammatory cytokine TNFα. The levels of 105 cytokines in the cell culture supernatant were measured by the R&D Systems Human XL cytokine array and a fluorescence-based photometric read-out. The table lists cytokines whose production was reduced by >50% (left) or 20 to 50% upon treatment with 50 μM B2 (right).

Experiment [2] relates to human primary neutrophils. The experiment in a line: Neutrophil NETosis (PMA or pyocyanin triggered, extracellular DNA, Sytox Green). The following applies: 3 hours (FIG. 3). Here is the method:
The effect of 3 different concentrations (from left to right for each treatment: 100, 50 and 20 μM) of B2 is shown as % reduction compared to untreated control; average of 3 experiments.
Neutrophil NETosis: Neutrophil production of extracellular traps, NETosis, was measured on human primary neutrophils, isolated from fresh blood samples as described above or by Pancoll gradient centrifugation. Neutrophils in RPMI at 4×10^6 cells/ml were triggered to undergo NETosis in wells of a 96-well plate at a total cell number of 2×10^5 cells per well. The cells were treated for 3 hours with either the […] phorbol myristate acetate (100 nM PMA) or the bacterial product pyocyanin (at 10 μM). Extracellular DNA was measured by fluorometry using the dye Sytox™ Green and/or by fluorescence microscopy.
To investigate the effect of B2 on neutrophil NETosis, human primary neutrophils, isolated from fresh blood samples, were triggered to undergo NETosis (the expulsion of DNA in the environment) by treatment for 3 hours with either the […] phorbol myristate acetate (PMA) or the bacterial product pyocyanin. Extracellular DNA was measured by photometry using the dye Sytox™ Green.

Experiment [3] concerns human primary mast cells. The experiment in a line: Mast cell degranulation (Lamp-1/CD107a by FACS). The following applies: IgE/anti-IgE; FIG. 6 (100, 50, 20 μM). Here is the method: Three different concentrations of B2 were tested (from left to right: 100, 50 and 20 μM) and the average of 11 experiments is shown as % reduction in degranulation (left plot). Degranulation was also measured at 3 time points (from left to right: 30, 15 and 5 minutes) after addition of 100 μM B2 (right plot).
Mast cell degranulation: Human primary mast cells were developed in StemSpan™ SFEM including 125 ng/ml SCF and 20 ng/ml IL3 from CD34+ hematopoietic precursor cells, and their purity after 4 to 5 weeks measured by FACS for c-kit and FceRI expression. This was measured by FACS using the appearance of Lamp-1 (CD107a) in line with that previously described by Klewer et al. (2021), applied here to human primary mast cells. Degranulation was triggered by preincubation of mast cells overnight with 1.3 μg/ml IgE followed by treatment with 0.2 μg/ml anti-IgE for 30 min.
To investigate the inhibition of mast cell degranulation by B2, degranulation was measured by FACS using the appearance of Lamp-1 (CD107a) on the surface of human primary mast cells upon degranulation. Degranulation was triggered by IgE/anti-IgE and B2 was applied 30 minutes before adding IgE. Three different concentrations of B2 were tested; from left to right in FIG. 6 (left plot): 100, 50 and 20 μM. […] Degranulation was also measured at 3 time points after addition of 100 μM B2 (FIG. 6, right plot).
Background: Flow cytometry measures light scatter and fluorescence of single cells or particles in a stream.

In experiment [4] the test system is human primary neutrophils. The experiment in a line: Neutrophil ROS production (fMLP triggered, DHR-123, FACS). Here is the method: The effect of 4 different concentrations (from left to right: 100, 50, 20 and 10 μM) of B2 is shown. Each symbol represents one experiment.
Neutrophil ROS production: Neutrophil reactive oxygen species (ROS) production was measured on human primary neutrophils, isolated from fresh blood samples using the MACSexpress™ neutrophil kit as described in the manufacturer's instructions (Miltenyi Biotec Inc.). Neutrophils in RPMI containing 50 μm dihydrorhodamine 123 (DHR-123) were triggered to produce ROS by treatment with 20 μm bacterial peptide N-formylmethionyl-leucyl-phenylalanine (fMLP) as a physiologically relevant stimulant. ROS were measured by FACS based on the conversion of DHR-123 to Rhodamine-123.
To investigate the effect of neutrophil ROS production by B2, human primary neutrophils, isolated from fresh blood samples, were triggered to produce reactive oxygen species (ROS) by treatment with the bacterial peptide N-formylmethionyl-leucyl-phenylalanine (fMLP) as a physiologically relevant stimulant and ROS were measured by FACS based on the conversion of dihydrorhodamine 123 to rhodamine 123. The effect of 4 different concentrations of B2 is shown (FIG. 2).

Consider `Cc1onc(-c2ccccc2Cl)c1C(=O)Nc1nc2ccc([N+](=O)[O-])cc2s1` [B2, 3-(2-chlorophenyl)-5-methyl-N-(6-nitrobenzo[d]thiazol-2-yl)isoxazole-4-carboxamide], for which the inhibition at 50 µM is 20 to 50% in experiment [1] (*Poor dose response, only minor increase with TNF, read-out: FGF19 production, reduction); 20 to 50% in experiment [1] (read-out: CCL2/MCP-1 production, reduction); > 50% in experiment [1] (read-out: CCL5/RANTES production, reduction); 20 to 50% in experiment [1] (read-out: CCL20/MIP-3 alpha production, reduction); > 50% in experiment [1] (read-out: CXCL1/GRO-alpha production, reduction); > 50% in experiment [1] (read-out: CXCL5/ENA-78 production, reduction). Further, the inhibition at 50 µM is 20 to 50% in experiment [1] (read-out: CXCL10/IP10 production, reduction); > 50% in experiment [1] (read-out: GMCSF production, reduction); > 50% in experiment [1] (read-out: HGF production, reduction); > 50% in experiment [1] (read-out: ICAM-1 production, reduction); 20 to 50% in experiment [1] (read-out: Pentraxin-3 production, reduction); > 50% in experiment [1] (read-out: TFF3 production, reduction). Besides, the inhibition at 50 µM in experiment [1] (read-out: VCAM-1 production, reduction) is > 50%. For the same molecule, the “human pulmonary endothelial cell cytokine release profile” value in experiment [1] (TNFα, Table 1) is given as “reducing specific pro-inflammatory cytokines”. Besides, the “secretion of several chemokines by endothelial cells” value in experiment [1] (TNFα, Table 1) is on record as “substantially reduced”. Moreover, in experiment [1] (TNFα, Table 1), the “secretion of several soluble adhesion molecules by endothelial cells” value was “reduced”. Besides, the “FGF19 production, dose response” value in experiment [1] (activated by TNF, footnote * to FGF19) is reported as “*Poor dose response, only minor increase with TNF”. In addition, the “neutrophil NETosis” value in experiment [2] was “substantially reduced”. Moreover, the “IgE-mediated mast cell degranulation” value in experiment [3] was “inhibited by B2 in IgE-mediated degranulation”. Also, the “inhibition of neutrophil ROS production” value in experiment [4] (50 μM B2, fMLP) is on record as “clear inhibition of ROS production”; in experiment [4] (100 μM B2, fMLP) it was “clear inhibition of ROS production”. In addition, the “neutrophil ROS production” value in experiment [4] (fMLP, concentration not given in the sentence (FIG. 2)) is “substantially reduced”.
